One data set relates to T98. As to the kind of experiment: MTT cytotoxicity assay, T98. The following applies: 72 h incubation. Format: cell-based, human. On the procedure:
(§1) The cytotoxic activity of prepared RAPTA complexes (4a–4h) was evaluated by following the standard procedure of the MTT experiment against a series of glioblastoma cells (LN 229, T98, U87MG) in triplicate. In order to accomplish this study, cells were maintained for 72 h with complexes of various concentrations ranging from 2–160 μM, taking cisplatin as a typical positive control.[22]
(§2) RAPTA complexes were dissolved in 1% DMSO, and 0.9% NaCl aqueous solution was used to dissolve cisplatin. A cell suspension was prepared and the number of cells taken was 2.5 × 10^4 mL^−1. The cells were seeded in 96-well plates (200 μL per well) and allowed 80% confluence prior to treatment. The cells were formerly treated with various concentrations (2.5–160 μM) of complex 4a–h while the control group was treated with PBS […]. After the 72 hours of incubation, 0.5% MTT solution was added to each well (20 μL) and further incubated for 4 hours at […]. The formazan crystals that were formed were dissolved in 150 μL DMSO and then the OD was measured by a microplate reader at 540 nm. The % growth inhibition of the control and treated cells were calculated and represented as the growth inhibition percentage as explained below.% growth inhibition = 100 − [(AD × 100)/AB]where AD is the absorbance measured in wells containing the treated and control samples and AB is the measured absorbance for the wells with media and a vehicle that served as the blank. IC50 was calculated using Graphpad Prism (version 6.0) where % cell viability was plotted against drug concentration.

A further data set has as its system U87MG. As to the kind of experiment: MTT cytotoxicity assay, U87MG. Format: cell-based, human. The following applies: 72 h incubation. On the procedure: as §1, §2
The target of data set [1] is bovine serum albumin (BSA) (Bos taurus, UniProt P02769). As to the kind of experiment: BSA binding study, tryptophan emission quenching. The following applies: for n, number of binding sites (BSA): Scatchard equation; for kq, quenching rate constant (BSA): from KBSA and τo (1 × 10^−8 s). On the procedure:
The KBSA of the complexes was obtained from Stern–Volmer plots by applying the well-known Stern–Volmer equation (Fig. S4 ^†). On the other hand, the quenching constants (kq) of 6.3 × 10^14 M^−1 s^−1 and 1.8 × 10^14 M^−1 s^−1 arising from biomolecular interactions were evaluated from KBSA and τo (1 × 10^−8 s) for the complexes 4c and 4d, correspondingly (Table S3 ^†). […]
Kapp × [Complex]50 = kEtBr × [EtBr]⋯⋯⋯(iii) […]
Stern-Volmer equation was followed for quantitative determination of the Stern-Volmer quenching constant (K SV).4 Origin (8.5) software was used to plot the fluorescence data to obtain linear plot of I0/I vs. [complex]. The value of KSV was calculated from the following […]
Where I0 = fluorescence intensity in absence of complex and I = fluorescence intensities in presence of complex of concentration [Q].
Protein binding studies 5
The main component is serum albumin proteins in drug transport and metabolism, as we all know. The interaction of the complex with […] serum albumin (BSA) was examined using a tryptophan emission quenching experiment. The association of the RAPTA complexes 4c and 4d with the protein BSA was detected using a tryptophan emission quenching assay. […]
concentrations gradually.
Origin Lab, version 8.5 was […]
equation (v) given below: […]

The subject of a further data set is U87MG cells. As to the kind of experiment: Cell cycle analysis by flow cytometry. Type of data set: cell-based, human. The following applies: 0.93 μM. On the procedure: As per the results of the MTT assay, there was an inhibition of cell proliferation that was further validated by determining the cellular damage, DNA damage and oxidative stress. Therefore, we went forward to investigate the DNA content by flow cytometry. […] We also observed a low S phase and M phase after the complex treatment (Fig. 4).
Fig. 4 Cell cycle analysis with the control U87MG cells (above) and the treatment of 0.93 μM 4d (below). TEXT PRINTED IN THE PICTURE: 4d: G0-G1(70.49%); S(21.32%); M(2.49%); Sub G1(3.48%) DOUBTS OF THE COPYIST ABOUT THIS PICTURE: 4d, G0-G1: 70.49% - blurred print, 9 could be 8 / 4d, S: 21.32% - blurred print, 3 could be 8 / 4d, M: 2.49% - blurred print, 9 could be 8 / 4d, Sub G1: 3.48% - blurred print, 3 and 8 not certain (3.46 or 3.48) / The Control plots (untreated cells, not a substance) print P2(43.61%), P3(29.04%), P4(24.36%), Sub G1(6.24%); these are left out of the lines, and their digits are blurred too

A further data set deals with T98G cells. Briefly: Neurosphere assay. Format: cell-based, human. The following applies: T98G, 20, 80 and 160 μM. On the procedure: The neurosphere assay is one of the best methods for analysing the stem cell capacity of isolated brain cells.[23] The stem cell media was used to grow T98G cells through single-cell division within 3 days and subsequently the development of small-diameter “neurosphere-like” tumour spheres within 7 days. After 12–14 days of culture, a phase-contrast microscope was used to take the image of the tumour spheres. To promote differentiation, DMEM (containing 10% FBS) medium was added to the tumour spheres.
Fig. 5 Neurosphere assay using different concentrations: (b) 20 μM, (c) 80 μM and (d) 160 μM of complex 4c against the T98G cell line; (a) pre-treatment (concentration of 4c = 0 μM).
Serum-free DMEM/F-12 (1 : 1), B27 (1 : 50), EGF (20 μg L^−1), bFGF (20 μg L^−1), antibiotic (Gibco) were added to stem cell media. The cells were grown in a tissue culture incubator with 5% CO2 at […]. Serum-free media were changed twice a week.

A short description of the next data set: Solubility. The following applies: DMSO-10% DMEM medium (1:99 v/v, comparable to cell media).
The nature of data set [2]: n-Octanol/water partition coefficient, shake-flask method.
Experimental: n-Octanol–water partition coefficient (log P o/w)8
Using the previously reported shake flask approach, the log Po/w of the RAPTA complexes
followed the previously described procedure. An orbital shaker was used to shake a known
amount of each complexes in water (pre-saturated with n-octanol). The solution was
centrifuged at 3000 rpm for 10 minutes to allow phase separation. Different ratios (0.5:1, 1:1,
and 2:1) of saturated solutions were shaken for 20 minutes on an orbital shaker with pre-
saturated n-octanol to get the partition coefficient. The absorbance of aliquots of the aqueous
and octanol layers were measured with a UV-Vis spectrophotometer after adequate dilution.
The concentrations of the complexes in each layer were estimated using the corresponding
molar extinction coefficients, and the partition coefficient (log Po/w) values were computed

Sequence of bovine serum albumin (BSA) (P02769 25-607): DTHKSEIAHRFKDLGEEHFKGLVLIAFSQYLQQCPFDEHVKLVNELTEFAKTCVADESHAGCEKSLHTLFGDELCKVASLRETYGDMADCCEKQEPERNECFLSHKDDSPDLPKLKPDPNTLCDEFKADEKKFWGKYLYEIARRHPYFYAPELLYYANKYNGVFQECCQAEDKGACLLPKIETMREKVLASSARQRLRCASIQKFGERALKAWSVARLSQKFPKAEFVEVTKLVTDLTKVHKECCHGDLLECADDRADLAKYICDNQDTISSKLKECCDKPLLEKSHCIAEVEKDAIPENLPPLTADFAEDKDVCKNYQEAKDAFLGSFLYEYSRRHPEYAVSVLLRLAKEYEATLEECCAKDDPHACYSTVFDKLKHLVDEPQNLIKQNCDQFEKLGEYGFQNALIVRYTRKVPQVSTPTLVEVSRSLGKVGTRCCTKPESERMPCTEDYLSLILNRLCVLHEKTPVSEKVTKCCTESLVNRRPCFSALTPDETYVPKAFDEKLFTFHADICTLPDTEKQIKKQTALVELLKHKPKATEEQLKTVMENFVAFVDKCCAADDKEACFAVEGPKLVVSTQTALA

As for `C1N2CN3CN1CP(C2)C3.Cc1ccc(C(C)C)cc1.F[P-](F)(F)(F)(F)F.F[P-](F)(F)(F)(F)F.[Ru+2].c1ccc(-c2ccnc3c2ccc2c(-c4ccccc4)ccnc23)cc1` [4d, [(η^6-p-Cymene)Ru^II(κ^2-N,N-4,7diphenylphenanthroline)(PTA)]·2PF6], the half-inhibitory concentration (IC50) in the data set with T98 was 940 ± 20 nM; in the data set on U87MG, 930 ± 20 nM. Also, in data set [1], the “n, number of binding sites (BSA)” value was found to be 1. The “K, binding constant with BSA” value in data set [1] (Scatchard plot) was found to be 52500 M⁻¹. Moreover, the “kq, quenching rate constant (BSA)” value in data set [1] is 1.8e+14 M⁻¹ s⁻¹. In the data set on U87MG cells, this molecule returned a G0/G1 phase of roughly 70.49%.

As for `C1N2CN3CN1CP(C2)C3.Cc1ccc(C(C)C)cc1.Cc1ccnc2c1ccc1c(C)ccnc12.F[P-](F)(F)(F)(F)F.F[P-](F)(F)(F)(F)F.[Ru+2]` [4c, [(η^6-p-Cymene)Ru^II(κ^2-N,N-4,7dimethylphenanthroline)(PTA)]·2PF6], the IC50 in the data set with T98 turned out to be 970 ± 20 nM. In addition, the IC50 with U87MG is 970 ± 20 nM. Moreover, in data set [1], the “n, number of binding sites (BSA)” value was determined as 1 and the “kq, quenching rate constant (BSA)” value came out at 6.3e+14 M⁻¹ s⁻¹. In the data set on T98G cells, the effect on neurospheres entry was “Complete developmental neurotoxicity”. In the data set “Solubility”, this molecule gave a solubility of 18 mM. In data set [2], the “log P (partition coefficient in n-octanol/water)” value came out at 0.30±0.04.

Source of the values: article PMC9241057, “Ru(II)arene(N^N bpy/phen)-based RAPTA complexes for in vitro anti-tumour activity in human glioblastoma cancer cell lines and in vivo toxicity studies in a zebrafish model” (RSC Advances, 2022).
